Experimental data published in ChEMBL document CHEMBL1149927, “Synthesis of 7-methoxy-2-(1,3-dithiolan-2-ylidene)cephem sulphones. A new series of human leukocyte elastase inhibitors” (Bioorg Med Chem Lett, 1996).

biological target: T1, Neutrophil elastase (Homo sapiens, UniProt P08246); test: Inhibitory activity against human sputum elastase (HSE)
T1 sequence (P08246 whole entry): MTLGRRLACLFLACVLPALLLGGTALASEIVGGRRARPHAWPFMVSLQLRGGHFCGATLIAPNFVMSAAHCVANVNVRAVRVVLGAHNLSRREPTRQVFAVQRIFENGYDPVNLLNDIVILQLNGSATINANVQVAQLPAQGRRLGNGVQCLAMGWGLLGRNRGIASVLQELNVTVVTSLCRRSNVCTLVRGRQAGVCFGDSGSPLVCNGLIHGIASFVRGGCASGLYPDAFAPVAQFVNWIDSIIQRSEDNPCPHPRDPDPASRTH

IC50	SMILES
74 nM	CO[C@H]1C(=O)N2C(C(=O)OC(C)(C)C)=C(C)C(=C(SC)SC)S(=O)(=O)C12 (stereo not given in full)
1800 nM	CO[C@H]1C(=O)N2C(C(=O)OC(C)(C)C)=C(C)CS(=O)(=O)C12 (stereo not given in full)

The next lines start with the compound.

SMILES	IC50
CO[C@H]1C(=O)N2C(C(=O)OC(C)(C)C)=C(C)C(=C3SCC(OC(C)=O)CS3)S(=O)(=O)C12 (stereo not given in full)	320 nM
CO[C@H]1C(=O)N2C(C(=O)OC(C)(C)C)=C(C)C(=C3SCCS3)S(=O)(=O)C12 (stereo not given in full)	380 nM
CO[C@H]1C(=O)N2C(C(=O)OC(C)(C)C)=C(C)C(=C3SCC(O)CS3)S(=O)(=O)C12 (stereo not given in full)	330 nM
